These are literature values, as cited in patent US20050107279A1, “Emulsion composition” (Unilever Home & Personal Care USA, Division of Conopco, Inc., priority 2003, published 2005).

For data set [1] the following is noted: AOT; range as per Sabatini et al. 1996.
The conditions of data set [2]: hydrophobic liquid.
For data set [3] the following is noted: hydrophobic liquid. This is another data set of the same source.

Consider `CCCCC(CC)COC(=O)CC(C(=O)OCC(CC)CCCC)S(=O)(=O)[O-].[Na+]` (stereo not drawn) [AOT, Aerosol OT], for which the HLB in data set [1] is 10-14.9).

On to `CCCCCCCC` [Octane], for which the “Log P” value in data set [2] is “(Log P = 4.7)”. The solubility in water result in data set [3] was “Solubility = 7 × 10^−5%”.
